Experimental data reported in patent US12324927B2, “Methods and systems for photodynamic therapy calculations” (THE TRUSTEES OF THE UNIVERSITY OF PENNSYLVANIA, priority 2018, dated 2025).
Values joined by “and” are separate entries in the source; they are usually repeats but may differ in a detail not shown here. Equal values may be shown once. “Also recorded” adds a separate entry of the source.

Experiments:
[1] = Photofrin concentration and PDT dose at pleural cavity sites measured by fluorescence with 4-channel PDT dose dosimeter during Photofrin-mediated pleural PDT; type: in vivo, human; conditions: for Mean Photofrin concentration: local tissue concentration per patient and pleural site, Photofrin 2 mg kg^−1 i.v. 24 h before PDT, mean ± SD of smoothed values
Description: The patients in this study were enrolled in a Phase II randomized clinical trial of Photofrin-mediated PDT for pleural mesothelioma treatment. Having given informed consent, they were administered Photofrin (Pinnacle Biologics, Chicago, IL, USA) at 2 mg kg^−1 of body weight as an intravenous infusion 24 h prior to intra-operative PDT. PDT was performed in the operating room, immediately following radical pleurectomy and debulking of tumor. PDT treatment was performed with 632 nm light provided by a KTP-pumped dye laser (model 630 XP, Laserscope, Inc., San Jose, CA, USA) to a total fluence of 60 J cm^−2. Light was delivered to the pleural cavity via an optical fiber inserted into modified endotracheal tube filled with 0.1% intralipid to produce an extended isotropic light source. The pleural cavity was filled with 0.01% intralipid solution during PDT treatment. As the intralipid solution became contaminated with blood as observed by the treating physician, it was repeatedly removed by suction pump and replaced with fresh solution to minimize light absorption by hemoglobin. The light source was circulated around in the lung cavity by the physician during the PDT. The instantaneous light fluence rate and the cumulative light dose were monitored continuously using 8 isotropic detectors (Medlight, Switzerland) sutured to 8 strategic locations within the pleural cavity wall. […] Each spectrometer has wavelength range of 200 nm-1050 nm and resolution of 0.42 nm using a diode array of 2048×1 elements and 14 μm×200 μm per element. The spectral resolution achieved was 0.47 nm. Isotropic detectors 9 to 12 were connected to the multichannel dosimetry system only. The dosimetry system records light fluence rate using photodiodes. Light fluence rate at surface is measured directly with an isotropic detector placed on the surface. The measured light fluence rate is not reflective of intra-tissue light fluence rate, which may be higher or lower than the value on the tissue surface depending on the tissue optical properties. Fluorescence collected by the fibers was collimated and passed through long pass filters (Semrock, Inc., Rochester, NY, USA) to block the treatment light before the transmitted fluorescence was recorded by the spectrometers, whereas no filtration was required for the treatment-light signal in the other arm of the bifurcated fibers. The front view and the schematic diagram of the system setup are shown in FIGS. 1A-B. There are 16 channels on the system enclosure as shown in FIG. 1A. Channels 9 to 16 (top row) are connected to the dosimetry system only whereas Channels 1 to 4 (bottom row) are connected to both the dosimetry system and the spectrometers. Channels 5 to 8 (bottom row) are currently not used. In this study, Channels 1 to 4 are used to measure fluence rate of the treatment light and Photofrin fluorescence concurrently, while Channel 9 to 12 are used to measure light fluence rate only.
Diffuse reflectance measurements were acquired before and after PDT treatment using a specially designed fiber optic-based contact probe comprising (e.g., or consisting of) one source fiber, coupled to an air-cooled quartz-tungsten-halogen (QTH) lamp (Avalight HAL-S, Avantes, Inc., Louisville, CO, USA), and 9 detection fibers spaced at distances from 1.4 to 8.7 mm from the source. Measurements were made with the probe in contact with the interior surface of the pleural cavity. The reflected light was collected by the detection fibers which are imaged via a spectrograph onto a CCD, to measure radially-resolved diffuse reflectance. Background signal was measured in the same tissue with the white light source turned off, and then subtracted from each measurement. Each tissue spectrum is divided by the spectrum obtained with the same light source and detector in an integrating sphere to account for the wavelength-dependence of the white light source power and CCD response. […]

[2] = 10 min mock treatment in liquid tissue-simulating phantom with moving light source; type: physicochemical; conditions: 3 mg kg^−1 Photofrin, 0-70 mW cm^−2
Description: Excitation light intensity varies vastly during PDT as the light source was constantly circulated around in the lung cavity by the physician. To test the performance of the PDT dosimetry system in measuring Photofrin fluorescence with varying excitation light intensities, a 10 min mock treatment was performed using liquid tissue-simulating phantom (μa=0.3 cm^−1 and μ′s=9.6 cm^−1) with known Photofrin concentration of 3 mg kg^−1 and a moving light source. The fluorescence spectra were measured at the surface of the phantom using isotropic detectors as described above. The treatment started with the treatment light wand positioned at a fixed distance above the phantom for 1 min. The average fluence rate measured on the surface was 50 mW cm^−2. Then the light wand was moved randomly over the top of the phantom to simulate the variations in the light fluence rate due to the movement of treatment light source in the pleural cavity during PDT treatment. […] The Photofrin concentrations obtained from measured Photofrin fluorescence spectra using data analysis method described above are plotted as a function of treatment time as shown in FIG. 4B. Each data point represents Photofrin concentration obtained from one fluorescence spectrum and the solid lines represent the average Photofrin concentration calculated for every 1 min of data. […]

[3] = Photofrin concentration and PDT dose at pleural cavity sites measured by fluorescence with 4-channel PDT dose dosimeter during Photofrin-mediated pleural PDT; parameters: species or system human; conditions: in vivo, all measurement sites, 630 nm, 60 J cm^−2
[4] = 22 sites, 8 patients, 2 mg kg^−1

Substance: Photofrin
- mean of the local Photofrin concentrations measured from all sites [1, 4]: 3.94±2.01 mg kg 1
- median of the local Photofrin concentrations measured from all sites [1, 4]: 3.37 ± 2.01 mg/kg
- Mean Photofrin concentration ([1]; pleural site ACW): 2.80 ± 0.27 mg/kg and 9.38 ± 0.57 mg/kg
- Mean Photofrin concentration ([1]; pleural site AS): 3.22 ± 0.35 mg/kg
- Mean Photofrin concentration ([1]; pleural site Apex): 4.71 ± 0.15 mg/kg and 3.12 ± 0.35 mg/kg and 1.13 ± 0.02 mg/kg and 3.27 ± 0.71 mg/kg and 7.19 ± 0.92 mg/kg and 4.56 ± 0.45 mg/kg
- Mean Photofrin concentration ([1]; pleural site PCW): 3.47 ± 0.42 mg/kg and 1.47 ± 0.20 mg/kg and 1.58 ± 0.21 mg/kg and 5.23 ± 0.47 mg/kg and 2.32 ± 0.23 mg/kg
- Mean Photofrin concentration ([1]; pleural site PM): 5.65 ± 0.67 mg/kg and 3.62 ± 0.61 mg/kg and 6.81 ± 0.35 mg/kg
- Mean Photofrin concentration ([1]; pleural site PS): 2.94 ± 0.12 mg/kg and 3.01 ± 0.05 mg/kg and 5.73 ± 0.24 mg/kg and 3.54 ± 0.16 mg/kg
- Mean Photofrin concentration ([1]; pleural site Peri): 1.87 ± 0.31 mg/kg
- difference of local sensitizer concentrations within the same patient ([1]; patient #020, same administered dose 2 mg kg^−1): 2.9 times
- difference of local sensitizer concentrations between patients ([1]; patients #016 and #018, same administered dose 2 mg kg^−1): 8.3 times
- photobleaching of Photofrin during mock treatment [2]: negligible photobleaching
- photobleaching of Photofrin during PDT treatment [3]: no significant photobleaching; also recorded: did not change significantly; also recorded: negligible photobleaching
